Key:
[1] = tested on: platelets in peripheral blood; assay: In vivo platelet production in mice, once a day for five days (Examples 13 and 16); parameters: species or system Balb/c mice; conditions: sixth day
Procedure: (§1) In Examples 7-10 and 13-17, the PEGylated hIL-6 polypeptides of the present invention were dissolved in PBS containing 0.1% normal mouse serum. The concentration of the solutions was adjusted so that the final volume administered was 100 μl.
The hIL-6 produced in Example 4 or its PEGylated derivatives produced in Examples 11 and 12 were administered subcutaneously to four Balb/c mice (8 weeks old, female) once a day for five days. Control mice were administered with the vehicle. Blood samples were taken on the sixth day and platelets in peripheral blood were counted.
The PEGylated hIL-6 Fr120'-2 was administered to five mice once a day for five days at a dose of 1 μg/mouse and blood samples were taken on the sixth day as described in Example 13.

[2] = Acute toxicity (Example 17); type: in vivo, Balb/c mice; conditions: for deaths during the ten day period after the administration: 1, 5, or 10 mg/kg s.c.; for acute LD50: s.c., ten day observation, 14400 min
Procedure: as §1
The acute toxicity of PEGylated hIL-6 was investigated. The hIL-6 of Example 4 or its PEGylated derivatives (Fr45-2, Fr100-2, and Fr120-2), produced in Examples 4, 11, and 12, were administered subcutaneously to five Balb/c mice (6 weeks old, male, 21-23 g weight) at a dose of either 1, 5, or 10 mg/kg weight (as polypeptide).

[3] = Castell et al. 1988; cited from earlier work
[4] = Table 6, 1 μg/mouse/injection s.c. once a day for five days
[5] = Table 6, 10 μg/mouse/injection s.c. once a day for five days
[6] = Table 6, 0.5 μg/mouse/injection s.c. once a day for five days
[7] = Table 6, 5 μg/mouse/injection s.c. once a day for five days
[8] = Table 7, 0.1 μg/mouse/injection s.c. once a day for five days
[9] = Table 7, 0.5 μg/mouse/injection s.c. once a day for five days
[10] = Table 7, 1 μg/mouse/injection s.c. once a day for five days
[11] = Table 7, 5 μg/mouse/injection s.c. once a day for five days
[12] = Table 7, 10 μg/mouse/injection s.c. once a day for five days

| Substance | Number of platelets (% of control) [1, 4] | Number of platelets (% of control) [1, 5] | deaths during the ten day period after the administration [2] | acute LD50 [2] | Number of platelets (% of control) [1, 6] | Number of platelets (% of control) [1, 7] | Number of platelets (% of control) [1, 8] | Number of platelets (% of control) [1, 9] | Number of platelets (% of control) [1, 10] | Number of platelets (% of control) [1, 11] | Number of platelets (% of control) [1, 12] | in vivo half-life in blood [3] |
| --- | --- | --- | --- | --- | --- | --- | --- | --- | --- | --- | --- | --- |
| Fr100-1: fraction of PEG(10000)IL-6, average 5.3 free amino groups per molecule | 100.0 % of control | 211.1 % of control | – | – | – | – | – | – | – | – | – | – |
| Fr100-2: fraction of PEG(10000)IL-6, average 7.4 free amino groups per molecule | 148.9 % of control | 250.8 % of control | None of the mice was observed to die | over 10 mg/kg weight | 107.9 % of control | 205.9 % of control | – | – | – | – | – | – |
| Fr100-3: fraction of PEG(10000)IL-6, average 8.6 free amino groups per molecule | 141.1 % of control | 204.4 % of control | – | – | 113.7 % of control | 212.7 % of control | – | – | – | – | – | – |
| Fr100-4: fraction of PEG(10000)IL-6, average 9.4 free amino groups per molecule | 142.5 % of control | 203.2 % of control | – | – | 138.7 % of control | 226.5 % of control | – | – | – | – | – | – |
| Fr100-5: fraction of PEG(10000)IL-6, average 10.0 free amino groups per molecule | 142.8 % of control | 202.4 % of control | – | – | 111.3 % of control | 225.9 % of control | – | – | – | – | – | – |
| Fr120-1: fraction of PEG(12000)IL-6, average 5.2 free amino groups per molecule | – | – | – | – | – | – | 141.3 % of control | 215.5 % of control | 221.5 % of control | 246.3 % of control | 201.3 % of control | – |
| Fr120-2: fraction of PEG(12000)IL-6, average 7.6 free amino groups per molecule | – | – | None of the mice was observed to die | over 10 mg/kg weight | – | – | 167.4 % of control | 227.8 % of control | 233.2 % of control | 244.3 % of control | 213.2 % of control | – |
| Fr120-3: fraction of PEG(12000)IL-6, average 8.7 free amino groups per molecule | – | – | – | – | – | – | 170.1 % of control | 205.9 % of control | 242.7 % of control | 243.1 % of control | 221.4 % of control | – |
| Fr120-4: fraction of PEG(12000)IL-6, average 9.2 free amino groups per molecule | – | – | – | – | – | – | 161.5 % of control | 203.4 % of control | 221.4 % of control | 229.0 % of control | 200.4 % of control | – |
| Fr120-5: fraction of PEG(12000)IL-6, average 9.8 free amino groups per molecule | – | – | – | – | – | – | 154.1 % of control | 191.5 % of control | 225.4 % of control | 224.8 % of control | 235.9 % of control | – |
| IL-6: interleukin-6, multi-functional cytokine | – | – | – | – | – | – | – | – | – | – | – | very short |
